# Laboratory results taken from patent US9328374B2, “Selective culture medium and method for detecting carbapenem-resistant bacteria in a test sample” (Institut National de la Sante et de la Recherche Medicale …, priority 2011, dated 2016).
# Test system: K. pneumoniae
# Test: MIC of imipenem, ertapenem and meropenem
# Type: cell-based, Klebsiella pneumoniae
smiles,measurement,setting,value
"C[C@@H](O)[C@H]1C(=O)N2C(C(=O)O)=C(S[C@@H]3CN[C@H](C(=O)N(C)C)C3)[C@H](C)[C@H]12 [MEM, meropenem]",MIC,K. pneumoniae KPN (CTX-M-15),0.12 µg/mL
same,MIC,"K. pneumoniae KPN, CTX-M-15, non-carbapenemase producer",0.012 µg/mL
same,MIC,K. pneumoniae LEG (CTX-M-15 + TEM-1 + SHV-12),3 µg/mL
same,MIC,"K. pneumoniae LEG, CTX-M-15 + TEM-1 + SHV-12, non-carbapenemase producer, porin deficiency",3 µg/mL
same,MIC,K. pneumoniae LIB (OXA-48),>32 µg/mL
same,MIC,"K. pneumoniae LIB, OXA-48",16 µg/mL
same,MIC,"K. pneumoniae LIE, KPC-2 + TEM-2 + OXA-9",>32 µg/mL
same,MIC,"K. pneumoniae LOU, OXA-48",0.5 µg/mL
same,MIC,K. pneumoniae MAD (VIM-1 + CTX-M-3),1 µg/mL
same,MIC,"K. pneumoniae MAD, VIM-1+ CTX-M-3",1 µg/mL
same,MIC,K. pneumoniae MEK (CTX-M-15 + SHV-11),6 µg/mL
same,MIC,"K. pneumoniae MEK, CTX-M-15 + SHV-11, non-carbapenemase producer, porin deficiency",6 µg/mL
same,MIC,K. pneumoniae MUS (KPC-2 + TEM-1 + SHV-11 + SHV-12),1.5 µg/mL
same,MIC,"K. pneumoniae MUS, KPC-2 + TEM-1 + SHV-11 + SHV-12",1.5 µg/mL
same,MIC,K. pneumoniae OM2 (NDM-1 + TEM-1 + CTX-M-3 + SHV-11 + OXA-1),1.5 µg/mL
same,MIC,"K. pneumoniae OM2, NDM-1 + TEM-1 + CTX-M-3 + SHV-11 + OXA-1",1.5 µg/mL
same,MIC,"K. pneumoniae OM4, NDM-1 + TEM-1 + CTX-M-15 + SHV-12 + OXA-9",16 µg/mL
same,MIC,"K. pneumoniae OM8, NDM-1 + TEM-1 + CTX-M-15 + SHV-11 + OXA-1",4 µg/mL
same,MIC,"K. pneumoniae OM11, OXA-48 + TEM-1 + CTX-M-14",0.25 µg/mL
same,MIC,"K. pneumoniae OM13, NDM-1 + TEM-1 + CTX-M-15 + SHV-28 + OXA-1 + OXA-9",2 µg/mL
same,MIC,"K. pneumoniae OM14, OXA-48 + TEM-1",0.38 µg/mL
same,MIC,"K. pneumoniae OM15, NDM-1 + CTX-M-15 + SHV-130 + OXA-1",3 µg/mL
same,MIC,"K. pneumoniae OM16, NDM-1 + CTX-M-15 + OXA-1 + OXA-181",16 µg/mL
same,MIC,"K. pneumoniae OM19, NDM-1 + CTX-M-15 + SHV-12 + OXA-1",8 µg/mL
same,MIC,K. pneumoniae OMA419 (NDM-1 + OXA-1),2 µg/mL
same,MIC,"K. pneumoniae OMA419, NDM-1 + OXA-1",2 µg/mL
same,MIC,"K. pneumoniae OMA601, NDM-1 + CTX-M-15 + OXA-1 + OXA-9",>32 µg/mL
same,MIC,K. pneumoniae OMA (OXA-181 + CTX-M-15 + OXA-1),0.5 µg/mL
same,MIC,"K. pneumoniae OMA, OXA-181 + CTXM-15 + OXA-1",0.5 µg/mL
same,MIC,K. pneumoniae RAM (OXA-48),1 µg/mL
same,MIC,"K. pneumoniae RAM, OXA-48",1 µg/mL
same,MIC,K. pneumoniae ROB (OXA-48 + CTX-M-15 + TEM-1),0.5 µg/mL
same,MIC,K. pneumoniae ROU (OXA-48 + CTX-M-15),0.25 µg/mL
same,MIC,"K. pneumoniae ROU, OXA-48 + CTX-M-15",0.25 µg/mL
same,MIC,K. pneumoniae SCO (OXA-48),0.25 µg/mL
same,MIC,"K. pneumoniae SCO, OXA-48",0.25 µg/mL
same,MIC,K. pneumoniae SHI (CTX-M-15 + TEM-1 + SHV-1),1 µg/mL
same,MIC,"K. pneumoniae SHI, CTX-M-15 + TEM-1 + SHV-11, non-carbapenemase producer, porin deficiency",1 µg/mL
same,MIC,K. pneumoniae SHM (CTX-M-15 + TEM-1 + SHV-11),1 µg/mL
same,MIC,"K. pneumoniae SHM, CTX-M-15 + TEM-1 + SHV-11, non-carbapenemase producer, porin deficiency",3 µg/mL
same,MIC,K. pneumoniae SIC (OXA-48 + CTX-M-15 + SHV-28),0.25 µg/mL
same,MIC,"K. pneumoniae SIC, OXA-48 + CTX-M-15 + SHV-28",0.25 µg/mL
same,MIC,K. pneumoniae SIM (CTX-M-15 + TEM-1 + SHV-1),6 µg/mL
same,MIC,"K. pneumoniae SIM, CTX-M-15 + TEM-1 + SHV-1, non-carbapenemase producer, porin deficiency",6 µg/mL
same,MIC,"K. pneumoniae TAW, IMP-8 + SHV-12",0.5 µg/mL
same,MIC,"K. pneumoniae TIK, OXA-48",0.38 µg/mL
same,MIC,K. pneumoniae TUR (IMP-1),8 µg/mL
same,MIC,"K. pneumoniae TUR, IMP-1",8 µg/mL
same,MIC,"K. pneumoniae TWA, IMP-8",0.5 µg/mL
same,MIC,K. pneumoniae UK (NDM-1 + CTX-M-15 + CMY-4 + OXA-1),>32 µg/mL
same,MIC,"K. pneumoniae UK, NDM-1 + CTX-M-15 + CMY-4 + OXA-1",>32 µg/mL
same,MIC,"K. pneumoniae VER, OXA-48 + TEM-1 + CTX-M-15 + SHV-11",0.38 µg/mL
same,MIC,K. pneumoniae VSG (OXA-48 + TEM-1 + CTX-M-15 + OXA-1),0.75 µg/mL
same,MIC,"K. pneumoniae VSG, OXA-48 + TEM-1 + CTX-M-15 + OXA-1",0.75 µg/mL
same,MIC,"K. pneumoniae YC, KPC-2 + TEM-1 + SHV-11 + SHV-12 + OXA-9",2 µg/mL
same,MIC,"strain K. pneumoniae 7725, SHV-1, non-carbapenemase producer",0.032 µg/mL
same,MIC,"strain K. pneumoniae 648236, SHV-2a, non-carbapenemase producer",0.38 µg/mL
same,MIC,"strain K. pneumoniae ALE, CTX-M-15 + SHV-1, non-carbapenemase producer",4 µg/mL
same,MIC,"strain K. pneumoniae AMS, OXA-48 + TEM-1 + CTX-M-15 + OXA-1",0.38 µg/mL
same,MIC,"strain K. pneumoniae BAJ, OXA-48 + TEM-1 + CTX-M-15 + SHV-28",0.38 µg/mL
same,MIC,"strain K. pneumoniae BED, CTX-M-15 + TEM-1 + SHV-11, non-carbapenemase producer",4 µg/mL
same,MIC,"strain K. pneumoniae BEL, OXA-48",1 µg/mL
same,MIC,"strain K. pneumoniae BEN, OXA-48 + TEM-1 + CTX-M-15 + SHV-28",0.25 µg/mL
same,MIC,"strain K. pneumoniae BER, SHV-28 + TEM-1, non-carbapenemase producer",1 µg/mL
same,MIC,"strain K. pneumoniae ELK, OXA-48 + TEM-1 + CTX-M-15 + SHV-11",0.38 µg/mL
same,MIC,"strain K. pneumoniae HOL, OXA-181 + CTX-M-15",1 µg/mL
same,MIC,"strain K. pneumoniae MUS, KPC-2 + TEM-1 + SHV-11 + SHV-12",1.5 µg/mL
same,MIC,"strain K. pneumoniae OM2, NDM-1 + TEM-1 + CTX-M-3 + SHV-11 + OXA-1",1.5 µg/mL
same,MIC,"strain K. pneumoniae OMA419, NDM-1 + OXA-1",2 µg/mL
same,MIC,"strain K. pneumoniae OMA, OXA-181 + CTXM-15 + OXA-1",0.5 µg/mL
same,MIC,"strain K. pneumoniae ROU, OXA-48 + CTX-M-15",0.25 µg/mL
same,MIC,"strain K. pneumoniae SCO, OXA-48",0.25 µg/mL
same,MIC,"strain K. pneumoniae SIC, OXA-48 + CTX-M-15 + SHV-28",0.25 µg/mL
same,MIC,"strain K. pneumoniae VSG, OXA-48 + TEM-1 + CTX-M-15 + OXA-1",0.75 µg/mL
